How the values were obtained:
[1] = system: nursery stock (variety: OREGON SUPER DELICIOUS) leaves; assay: Phytotoxicity studied in Test Example 4; assay type: in vivo; details: 500 ppm, spray on detached leaves of nursery stock
Description: A nursery stock (variety: OREGON SUPER DELICIOUS) was cultivated in a plastic pot of 30 cm diameter and its leaves, which had reached at perfect extension stage, were detached from the petiole, were cultivated under hydroponic condition by using a water-holding carrier. After that, a diluted solution of an active compound of the prescribed concentration, prepared in a similar manner as in the above-mentioned Test Example 1, was sprayed to the leaves in an amount of 6 ml per 3 leaves. One day after the spraying, a suspension of spores of artificially cultured Alternaria mali was inoculated to the leaves by spraying (once) and infected by transferring them into a moisturizing box and keeping at 20° C. Four days after the inoculation, the contraction rate per pot was classified and evaluated according to the following standard and the controlling value (%) was obtained. Phytotoxicity was also studied at the same time. This test is an average of the results of 1 section 3 leaves.

[2] = system: Cucumber (variety: SAGAMI HANPAKU); assay: Phytotoxicity studied in Test Example 2; assay type: in vivo; details: 500 ppm, foliage spray
Description: Cucumber (variety: SAGAMI HANPAKU) was cultivated in a plastic pot of 4 cm diameter. A diluted solution of an active compound of the prescribed concentration, prepared in a similar manner as in the above-mentioned Test Example 1, was sprayed to seedlings reached to cotyledon in an amount of 6 ml per 3 pots. One day after the spraying, a suspension of spores, prepared by washing spores of Sphaerotheca fuliginea taken from previously infected cucumber into distilled water, was inoculated to the plant to be treated by spraying (once) and infected in a green house. Seven days after the inoculation, the contraction rate per pot was classified and evaluated to obtain the controlling value (%). Phytotoxicity was also studied at the same time. This test is an average of the results of 1 section 3 pots.

[3] = system: Paddy rice (variety: KOSHIHIKARI); details: in vivo
Tomato (variety: REGINA) = details: in vivo

With COc1ncnc(N2CCCC2)c1Cc1cccc(F)c1 as the compound, how does the melting point read?
Its melting point is 74 to 76 °C.

Which Phytotoxicity [1] does the source give for Cc1cc(C)n(-c2nc(C)nc(Cl)c2Cc2ccccc2)n1 [Compound 1-523] here?
Its Phytotoxicity is “No phytotoxicity was observed”.

With CC(C)(C)c1nc(Cl)c(Cc2ccccc2)c(N2CCCC2)n1 [Compound 1-121] as the compound, how does the Phytotoxicity [1] read?
Its Phytotoxicity is “No phytotoxicity was observed”.

Which results are given for CC1CCCN1c1ncnc(Cl)c1Cc1cccc(F)c1 (stereo not shown) [Compound 1-14]?
Phytotoxicity [1]: No phytotoxicity was observed; Phytotoxicity [2]: No phytotoxicity was observed; Phytotoxicity [3]: No phytotoxicity was observed

For Clc1nc(-c2ccncc2)nc(N2CCCC2)c1Cc1ccccc1 [Compound 1-304], which Phytotoxicity [1] is on record?
The Phytotoxicity was “No phytotoxicity was observed”.

For Clc1cccc(Cc2c(Cl)ncnc2N2CCSC2)c1 [Compound 1-41], which Phytotoxicity [1] is on record?
The Phytotoxicity was “No phytotoxicity was observed”.

For Clc1ncnc(N2CCC=N2)c1Cc1ccccc1 [Compound 1-42], which Phytotoxicity [1] is on record?
Its Phytotoxicity is “No phytotoxicity was observed”.

For CC1CCCN1c1ncnc(Cl)c1Cc1cc(F)cc(F)c1 (stereo not shown) [Compound 1-17], which Phytotoxicity [2] is on record?
Its Phytotoxicity is “No phytotoxicity was observed”.

And the Phytotoxicity [3]?
The Phytotoxicity was “No phytotoxicity was observed”.

For Fc1ccc(Cc2c(Cl)ncnc2N2CCCC2)cc1 [Compound 1-68], which Phytotoxicity [2] is on record?
The Phytotoxicity was “No phytotoxicity was observed”.

And the Phytotoxicity [3]?
Its Phytotoxicity is “No phytotoxicity was observed”.

Which Phytotoxicity [2] does the source give for CC1CCCN1c1ncnc(Cl)c1Cc1ccc(F)c(F)c1 (stereo not shown) [Compound 1-16] here?
The Phytotoxicity was “No phytotoxicity was observed”.

What about the Phytotoxicity [3] of the same compound?
Its Phytotoxicity is “No phytotoxicity was observed”.

For CC1CCCN1c1ncnc(Cl)c1Cc1ccccc1 (stereo not shown) [Compound 1-11], which Phytotoxicity [2] is on record?
Its Phytotoxicity is “No phytotoxicity was observed”.

And the Phytotoxicity [3]?
Its Phytotoxicity is “No phytotoxicity was observed”.

Which results are given for Fc1cccc(Cc2cncnc2N2CCCC2)c1 [Compound 1-102, 5-(3-fluorobenzyl)-4-pyrrolidin-1-yl-pyrimidine]?
Phytotoxicity [1]: No phytotoxicity was observed; Phytotoxicity [3]: No phytotoxicity was observed; melting point: 51 to 54 °C

With Clc1ccccc1Cc1c(Cl)ncnc1N1CCCC1 [Compound 1-46] as the compound, how does the Phytotoxicity [1] read?
The Phytotoxicity was “No phytotoxicity was observed”.

And the Phytotoxicity [2]?
The Phytotoxicity was “No phytotoxicity was observed”.

Which Phytotoxicity [1] does the source give for Clc1ncnc(N2CCCC2)c1Cc1ccccc1 [Compound 1-5, 5-benzyl-4-chloro-6-pyrrolidin-1-yl-pyrimidine] here?
Its Phytotoxicity is “No phytotoxicity was observed”.

What about the Phytotoxicity [2] of the same compound?
Its Phytotoxicity is “No phytotoxicity was observed”.

And the Phytotoxicity (Tomato (variety: REGINA))?
The Phytotoxicity was “No phytotoxicity was observed”.

And the Phytotoxicity [3]?
The Phytotoxicity was “No phytotoxicity was observed”.

Which Phytotoxicity [3] does the source give for Fc1ccccc1Cc1c(Cl)ncnc1N1CCCC1 [Compound 1-45] here?
Its Phytotoxicity is “No phytotoxicity was observed”.

With Clc1cccc(Cc2c(Cl)ncnc2N2CCCC2)c1 [Compound 1-57] as the compound, how does the Phytotoxicity [2] read?
Its Phytotoxicity is “No phytotoxicity was observed”.

And the Phytotoxicity [3]?
The Phytotoxicity was “No phytotoxicity was observed”.

For Fc1cc(F)cc(Cc2c(Cl)ncnc2N2CCCC2)c1 [Compound 1-87], which Phytotoxicity [2] is on record?
The Phytotoxicity was “No phytotoxicity was observed”.

What about the Phytotoxicity [3] of the same compound?
The Phytotoxicity was “No phytotoxicity was observed”.

With Clc1nc(-c2cnccn2)nc(N2CCCC2)c1Cc1ccccc1 [Compound 1-311] as the compound, how does the Phytotoxicity [1] read?
Its Phytotoxicity is “No phytotoxicity was observed”.

Which Phytotoxicity [1] does the source give for Fc1cccc(Cc2c(Cl)ncnc2N2CCCC2)c1 [Compound 1-56, 4-Chloro-5-(3-fluorobenzyl)-6-pyrrolidin-1-yl-pyrimidine] here?
The Phytotoxicity was “No phytotoxicity was observed”.

What about the Phytotoxicity [2] of the same compound?
Its Phytotoxicity is “No phytotoxicity was observed”.

And the Phytotoxicity [3]?
Its Phytotoxicity is “No phytotoxicity was observed”.

For CC(c1ccccc1)c1c(Cl)ncnc1N1CCCC1 (racemic) [Compound 1-6], which Phytotoxicity [2] is on record?
The Phytotoxicity was “No phytotoxicity was observed”.

With Clc1ncnc(N2CCSC2)c1Cc1ccccc1 [Compound 1-37] as the compound, how does the Phytotoxicity [3] read?
Its Phytotoxicity is “No phytotoxicity was observed”.

For OC[C@H]1CCCN1c1ncnc(Cl)c1Cc1ccccc1 [Compound 1-22], which Phytotoxicity [3] is on record?
The Phytotoxicity was “No phytotoxicity was observed”.

Which Phytotoxicity [2] does the source give for CC1CCCN1c1ncnc(Cl)c1Cc1cccc(Cl)c1 (stereo not shown) [Compound 1-15] here?
The Phytotoxicity was “No phytotoxicity was observed”.

What about the Phytotoxicity [3] of the same compound?
The Phytotoxicity was “No phytotoxicity was observed”.

Which results are given for Clc1nc(-c2ccccn2)nc(N2CCCC2)c1Cc1ccccc1 [Compound 1-238]?
Phytotoxicity (Tomato (variety: REGINA)): No phytotoxicity was observed; Phytotoxicity [3]: No phytotoxicity was observed

What does the source list for CC1C=CC(C)N1c1ncnc(Cl)c1Cc1ccccc1 (stereo not shown) [Compound 1-36]?
Phytotoxicity [1]: No phytotoxicity was observed; Phytotoxicity [3]: No phytotoxicity was observed

Which Phytotoxicity [2] does the source give for Fc1ccc(Cc2c(Cl)ncnc2N2CCCC2)cc1F [Compound 1-86] here?
The Phytotoxicity was “No phytotoxicity was observed”.

And the Phytotoxicity [3]?
Its Phytotoxicity is “No phytotoxicity was observed”.

Which Phytotoxicity [1] does the source give for Clc1nc(-n2cncn2)nc(N2CCCC2)c1Cc1ccccc1 [Compound 1-435] here?
Its Phytotoxicity is “No phytotoxicity was observed”.

Which Phytotoxicity [1] does the source give for Clc1ncnc(N2CC=CC2)c1Cc1ccccc1 [Compound 1-33] here?
Its Phytotoxicity is “No phytotoxicity was observed”.

What about the Phytotoxicity [3] of the same compound?
Its Phytotoxicity is “No phytotoxicity was observed”.

For CS(=O)(=O)c1nc(Cl)c(Cc2ccccc2)c(N2CCCC2)n1, which melting point is on record?
Its melting point is 136 to 138 °C.

Which results are given for CSc1nc(Cl)c(Cc2ccccc2)c(N2CCCC2)n1 [Compound 1-165, 5-benzyl-4-chloro-2-methylthio-6-pyrrolidin-1-yl-pyrimidine]?
Phytotoxicity (Tomato (variety: REGINA)): No phytotoxicity was observed; melting point: 97 to 99 °C

Reference: patent US20070167421A1, “Pyrimidine derivatives and use thereof as agricultural and horticultural fungicides” (priority 2004, published 2007)
